Measured values published in US20140135310A1, “SULPHONAMIDE DERIVATIVES OF ALICYCLIC AMINES FOR THE TREATMENT OF CENTRAL NERVOUS SYSTEM DISEASES” (Adamed Sp. z o.o., priority 2011, published 2014).

Experiments:
[1] = target: T1, 5-HT1A receptor (rat hippocampus) (Rattus norvegicus, UniProt P19327); test: Radioligand binding assay, serotoninergic 5-HT1A receptors; conditions: binding assay result in %, Table 5a;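 note: test compound at 1 µM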
T1 construct: hippocampus; from tissue; host or cells: rat hippocampus
T1 sequence (P19327 1-422): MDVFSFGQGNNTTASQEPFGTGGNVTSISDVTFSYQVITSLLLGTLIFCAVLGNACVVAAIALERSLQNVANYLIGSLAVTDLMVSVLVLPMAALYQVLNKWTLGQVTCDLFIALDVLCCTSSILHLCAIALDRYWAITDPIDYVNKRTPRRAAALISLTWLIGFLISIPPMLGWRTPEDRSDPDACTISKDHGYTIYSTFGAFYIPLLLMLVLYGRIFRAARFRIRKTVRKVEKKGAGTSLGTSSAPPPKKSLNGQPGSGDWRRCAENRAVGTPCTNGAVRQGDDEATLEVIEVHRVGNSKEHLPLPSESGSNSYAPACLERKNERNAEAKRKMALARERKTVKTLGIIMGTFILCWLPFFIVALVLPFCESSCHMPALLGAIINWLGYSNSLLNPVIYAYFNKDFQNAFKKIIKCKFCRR

[2] = target: T2, 5-HT2A receptor (Homo sapiens, UniProt P28223); test: Radioligand binding assay, serotoninergic 5-HT2A receptors; conditions: binding assay result in %, Table 5a
T2 construct: purchased PerkinElmer
Outline: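 Radioligand competition binding with scintillation counting; nonspecific binding defined by excess unlabelled ligand. Data as percent inhibition of control specific binding. IC50 by Hill-equation fit of competition curves; Ki by Cheng-Prusoff, with radioligand Kd from Scatchard plot.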

[3] = target: dopaminergic receptors D3 (Homo sapiens, UniProt P35462); test: Radioligand binding assay, dopaminergic D3 receptors; conditions: test compound 1×10^−6 M
Outline: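 Competition radioligand binding at human D2, D3 and D4.4 receptors, detected by scintillation counting; nonspecific binding defined with excess unlabelled ligand. Results as percent inhibition of control specific binding; IC50 by Hill-equation nonlinear regression; Ki via Cheng-Prusoff, with radioligand KD from Scatchard plot.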

[4] = target: T3, 5-HT6 receptor (Homo sapiens, UniProt P50406); test: Radioligand binding assay, serotoninergic 5-HT6 receptors; conditions: binding assay result in %, Table 5a;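 note: test compound at 1 µM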
T3 construct: purchased PerkinElmer
Outline: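 Values are Ki from Cheng–Prusoff, taking IC50 from Hill nonlinear regression of competition curves and KD from a Scatchard plot. Specific binding was total minus binding with excess unlabelled ligand. Radioligand displacement was detected by scintillation counting, and data were also reported as percent of control specific binding.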

[5] = target: dopaminergic receptors D2 (Homo sapiens, UniProt P14416); test: Radioligand binding assay, dopaminergic D2 receptors; conditions: binding assay, test compound 1×10^−6 M
Outline: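 Radioligand displacement was measured by scintillation counting, with non-specific binding defined in the presence of excess unlabelled ligand. Competition curves were fitted to the Hill equation to give IC50, and Ki was derived by the Cheng–Prusoff equation.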

[6] = target: T4, 5-HT7 receptor (Homo sapiens, UniProt P34969); test: Radioligand binding assay, serotoninergic 5-HT7 receptors; conditions: binding assay result in %, Table 5a;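 note: test compound at 1 µM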
T4 construct: purchased PerkinElmer
Outline: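 Competition binding at human 5-HT7 receptors with a radioligand, detected by scintillation counting; non-specific binding was defined with excess unlabelled ligand. IC50 came from Hill-equation fits of competition curves, and Ki from Cheng–Prusoff using radioligand concentration and Scatchard-derived KD.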

[7] = test system: α1 adrenergic receptors (rat cerebral cortex); test: Radioligand binding assay, adrenergic α1 receptors; conditions: test compound 1×10^−6 M
Text: The specific ligand binding to the receptors is defined as the difference between the total binding and the non-specific binding determined in the presence of the excess of unlabelled ligand.
The results are expressed as a percent of control specific binding ((measured specific binding/control specific binding)×100) and as a percent inhibition of control specific binding (100−((measured specific binding/control specific binding)×100)) obtained in the presence of the test compounds. The specific ligand binding to the receptors is defined as the difference between the total binding and the nonspecific binding determined in the presence of an excess of unlabelled ligand. Scintillation counting was the method of detection of ligand binding. The IC50 values (concentration causing a half-maximal inhibition of control specific binding) were determined by non-linear regression analysis of the competition curves generated with mean replicate values using Hill equation curve fitting (Y=D+[(A−D)/(1+(C/C50)nH)], where Y=specific binding, D=minimum specific binding, A=maximum specific binding, C=compound concentration, C50=IC50, and nH=slope factor). […] The inhibition constants (Ki) were calculated using the Cheng Prusoff equation (Ki=IC50/(1+(L/KD)), where L=concentration of radioligand in the assay, and KD=affinity of the radioligand for the receptor). A scatchard plot was used to determine the Kd.

[8] = target: T5, serotonin transporter (SERT) (Homo sapiens, UniProt P31645); test: Radioligand binding assay, serotonin transporter (SERT); conditions: binding assay, test compound 1×10^−6 M
T5 construct: expressed in transfected cells; host or cells: CHO cells
Outline: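 Radioligand competition binding with scintillation detection; specific binding is total minus binding under excess unlabelled ligand. Reported as % of control specific binding or % inhibition; IC50 from Hill-equation non-linear regression of competition curves, and Ki via Cheng-Prusoff using radioligand concentration and Scatchard-derived KD.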

T2 sequence (P28223 whole entry): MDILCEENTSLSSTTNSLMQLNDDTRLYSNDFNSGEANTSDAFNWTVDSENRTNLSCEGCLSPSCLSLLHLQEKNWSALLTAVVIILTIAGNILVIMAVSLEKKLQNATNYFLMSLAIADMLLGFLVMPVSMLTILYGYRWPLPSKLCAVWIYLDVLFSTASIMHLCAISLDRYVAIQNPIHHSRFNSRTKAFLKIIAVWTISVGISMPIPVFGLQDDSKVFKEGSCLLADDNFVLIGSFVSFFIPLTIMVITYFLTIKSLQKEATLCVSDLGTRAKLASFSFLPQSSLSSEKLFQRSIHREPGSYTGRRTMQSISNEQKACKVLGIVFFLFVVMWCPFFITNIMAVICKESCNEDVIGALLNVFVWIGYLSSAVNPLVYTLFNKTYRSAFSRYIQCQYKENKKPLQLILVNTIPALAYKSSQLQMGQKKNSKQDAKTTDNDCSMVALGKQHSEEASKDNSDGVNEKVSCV
T3 sequence (P50406 whole entry): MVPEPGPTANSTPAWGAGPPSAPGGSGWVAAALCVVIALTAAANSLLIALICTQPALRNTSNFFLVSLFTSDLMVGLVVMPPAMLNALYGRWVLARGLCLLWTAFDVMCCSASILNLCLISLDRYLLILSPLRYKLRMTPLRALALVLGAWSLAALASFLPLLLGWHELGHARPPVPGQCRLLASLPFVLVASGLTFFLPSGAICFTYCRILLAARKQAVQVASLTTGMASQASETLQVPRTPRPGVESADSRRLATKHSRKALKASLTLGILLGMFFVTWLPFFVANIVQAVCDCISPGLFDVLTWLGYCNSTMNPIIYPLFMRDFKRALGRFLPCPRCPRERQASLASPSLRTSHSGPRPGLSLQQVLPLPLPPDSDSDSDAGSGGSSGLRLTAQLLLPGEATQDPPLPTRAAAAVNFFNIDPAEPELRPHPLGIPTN
T5 sequence (P31645 whole entry): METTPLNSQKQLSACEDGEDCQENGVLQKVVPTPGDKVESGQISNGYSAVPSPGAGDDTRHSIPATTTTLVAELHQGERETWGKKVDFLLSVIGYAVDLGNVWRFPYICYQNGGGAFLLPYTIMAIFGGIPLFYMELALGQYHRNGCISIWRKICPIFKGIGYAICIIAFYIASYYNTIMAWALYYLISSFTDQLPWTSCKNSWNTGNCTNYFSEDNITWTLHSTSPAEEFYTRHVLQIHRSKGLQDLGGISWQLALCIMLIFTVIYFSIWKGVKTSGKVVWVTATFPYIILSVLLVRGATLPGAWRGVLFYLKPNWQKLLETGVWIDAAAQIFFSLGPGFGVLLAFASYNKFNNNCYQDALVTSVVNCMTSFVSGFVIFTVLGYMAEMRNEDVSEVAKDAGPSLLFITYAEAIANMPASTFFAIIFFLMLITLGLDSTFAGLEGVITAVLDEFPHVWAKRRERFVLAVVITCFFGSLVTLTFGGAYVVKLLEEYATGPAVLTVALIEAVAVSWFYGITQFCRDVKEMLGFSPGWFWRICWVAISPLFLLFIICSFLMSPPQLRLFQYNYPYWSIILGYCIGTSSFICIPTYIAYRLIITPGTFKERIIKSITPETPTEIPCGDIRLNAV
Sequence of dopaminergic receptors D3 (P35462 whole entry): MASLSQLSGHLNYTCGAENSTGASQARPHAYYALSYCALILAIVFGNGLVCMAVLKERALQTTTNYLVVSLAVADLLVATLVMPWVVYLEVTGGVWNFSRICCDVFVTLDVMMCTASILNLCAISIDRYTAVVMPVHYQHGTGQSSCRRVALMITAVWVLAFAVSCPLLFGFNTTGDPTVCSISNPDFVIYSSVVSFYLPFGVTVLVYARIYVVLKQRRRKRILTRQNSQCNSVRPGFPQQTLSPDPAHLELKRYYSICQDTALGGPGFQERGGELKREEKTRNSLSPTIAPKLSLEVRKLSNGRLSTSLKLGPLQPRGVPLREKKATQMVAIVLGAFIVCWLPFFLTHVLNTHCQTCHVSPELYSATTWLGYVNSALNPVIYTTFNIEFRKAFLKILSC
Sequence of dopaminergic receptors D2 (P14416 whole entry): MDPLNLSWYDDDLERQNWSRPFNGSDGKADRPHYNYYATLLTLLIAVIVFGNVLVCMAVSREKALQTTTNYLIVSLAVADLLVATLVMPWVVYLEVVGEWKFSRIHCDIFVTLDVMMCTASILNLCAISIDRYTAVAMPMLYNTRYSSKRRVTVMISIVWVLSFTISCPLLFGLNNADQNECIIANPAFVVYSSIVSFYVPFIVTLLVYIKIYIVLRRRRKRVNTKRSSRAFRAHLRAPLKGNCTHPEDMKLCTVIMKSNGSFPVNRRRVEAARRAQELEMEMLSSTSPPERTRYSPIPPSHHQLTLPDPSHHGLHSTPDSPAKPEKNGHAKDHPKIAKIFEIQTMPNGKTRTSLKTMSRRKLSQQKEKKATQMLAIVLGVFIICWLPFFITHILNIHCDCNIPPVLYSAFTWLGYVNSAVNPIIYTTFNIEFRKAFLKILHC
T4 sequence (P34969 whole entry): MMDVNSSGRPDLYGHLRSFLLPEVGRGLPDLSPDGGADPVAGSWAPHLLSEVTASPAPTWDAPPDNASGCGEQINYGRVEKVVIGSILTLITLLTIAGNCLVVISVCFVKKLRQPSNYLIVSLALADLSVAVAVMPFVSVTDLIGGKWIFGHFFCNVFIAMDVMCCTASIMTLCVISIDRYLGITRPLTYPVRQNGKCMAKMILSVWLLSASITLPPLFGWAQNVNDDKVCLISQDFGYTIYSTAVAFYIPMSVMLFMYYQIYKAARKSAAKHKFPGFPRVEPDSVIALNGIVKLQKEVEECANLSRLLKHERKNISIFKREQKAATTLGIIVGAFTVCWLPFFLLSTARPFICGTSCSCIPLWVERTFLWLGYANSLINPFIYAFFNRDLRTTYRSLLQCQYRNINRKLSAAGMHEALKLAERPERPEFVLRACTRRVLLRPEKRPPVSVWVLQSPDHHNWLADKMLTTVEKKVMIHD

| Structure (SMILES) | inhibition at 1 µM [1] | inhibition at 1 µM [2] | inhibition at 1 µM [3] | inhibition at 1 µM [4] | inhibition at 1 µM [5] | inhibition at 1 µM [6] | α1 [%] [7] | inhibition at 1 µM [8] | 5-HT1A [%] [1] | 5-HT2A [%] [2] | D3 [%] [3] | 5-HT6 [%] [4] | D2 [%] [5] | 5-HT7 [%] [6] | SERT [%] [8] |
| --- | --- | --- | --- | --- | --- | --- | --- | --- | --- | --- | --- | --- | --- | --- | --- |
| O=S(=O)(NCC1CCN(CCOc2cccc3ccccc23)C1)c1ccc(F)c(Cl)c1 (stereo not drawn) [Compound 277, 3-Chloro-4-fluoro-N-[[1-[2-(1-naphthyloxy)ethyl]pyrrolidin-3-yl]methyl]benzenesulphonamide] | 85% | 85% | 90% | 93% | 34% | 108% | 21% | 68% | – | – | – | – | – | – | – |
| O=S(=O)(NCC1CCN(CCOc2cccc3ccccc23)C1)c1cc2ccccc2s1 (stereo not drawn) [Compound 268, N-[[1-[2-(1-Naphthyloxy)ethyl]pyrrolidin-3-yl]methyl]benzothiophene-2-sulphonamide] | 77% | 82% | 93% | 84% | 54% | 88% | 9% | 85% | – | – | – | – | – | – | – |
| O=S(=O)(NCC1CN(CCOc2cccc3c2OCCO3)C1)c1ccc(Cl)cc1 [Compound 179, 4-Chloro-N-[[1-[2-(2,3-dihydro-1,4-benzodioxin-5-yloxy)ethyl]azetidin-3-yl]methyl]benzenesulphonamide] | 92% | 57% | 40% | -15% | 6% | 90% | 61% | -8% | – | – | – | – | – | – | – |
| O=S(=O)(NC1CCN(CCCc2c[nH]c3ccc(Cl)cc23)C1)c1ccc(Cl)cc1 (stereo not drawn) [Compound 85, 4-Chloro-N-[1-[3-(5-chloro-1H-indol-3-yl)propyl]pyrrolidin-3-yl]-benzene-sulphonamide] | 102% | 64% | 75% | 82% | 45% | 89% | 9% | 70% | – | – | – | – | – | – | – |
| O=S(=O)(NC1CCN(CCCc2noc3cc(F)ccc23)CC1)c1ccc2ccccc2c1 [Compound 35, N-[1-[3-(6-Fluoro-1,2-benzoxazol-3-yl)propyl]-4-piperidine]-naphthalene-2-sulphonamide] | – | – | – | – | – | – | 99% | – | 28% | 91% | 56% | 97% | 77% | 98% | 29% |
| Cn1ccc2c(S(=O)(=O)NCC3CN(CCOc4cccc5c4OCCO5)C3)cccc21 [Compound 188, N-[[1-[2-(2,3-Dihydro-1,4-benzodioxin-5-yloxy)ethyl]azetidin-3-yl]methyl]-1-methyl-indole-4-sulphonamide] | 101% | 89% | 51% | 14% | 52% | 91% | 91% | 44% | – | – | – | – | – | – | – |
| O=C1Cc2cc(S(=O)(=O)NCC3CN(CCOc4cccc5c4OCCO5)C3)ccc2N1 [Compound 189, N-[[1-[2-(2,3-Dihydro-1,4-benzodioxin-5-yloxy)ethyl]azetidin-3-yl]methyl]-2-oxo-indoline-5-sulphonamide] | 112% | 74% | 61% | 46% | 71% | 90% | 71% | 41% | – | – | – | – | – | – | – |
| O=S(=O)(NC1CCN(CCOc2cccc3c2OCCO3)CC1)c1ccccc1 [Compound 117, N-[1-[2-(2,3-Dihydro-1,4-benzodioxan-8-yloxy)ethyl]-4-piperidine]-benzenesulphonamide] | – | – | – | – | – | – | 53% | – | 76% | 86% | 29% | 34% | 24% | 93% | 33% |
| O=S(=O)(NC1CCN(CCCc2noc3cc(F)ccc23)C1)c1ccc(F)cc1 (stereo not drawn) [Compound 8, 4-Fluoro-N-[1-[3-(6-fluoro-1,2-benzoxazol-3-yl)propyl]pyrrolidin-3-yl]benzenesulphonamide] | 5% | 97% | 18% | 64% | 72% | 85% | 95% | -13% | – | – | – | – | – | – | – |
| O=S(=O)(NC1CCN(CCOc2cccc3[nH]ccc23)C1)c1ccc2ccccc2c1 (stereo not drawn) [Compound 54, N-[1-[2-(1H-Indol-4-yloxy)ethyl]pyrrolidin-3-yl]naphthalene-2-sulphonamide] | 90% | 88% | 105% | 87% | 83% | 102% | 90% | 46% | – | – | – | – | – | – | – |
| O=S(=O)(NCC1CCN(CCOc2cccc3c2OCCO3)C1)c1ccc2scnc2c1 (stereo not drawn) [Compound 285, N-[[1-[2-(2,3-Dihydro-1,4-benzodioxin-5-yloxy)ethyl]pyrrolidin-3-yl]methyl]-1,3-benzothiazole-5-sulphonamide] | 62% | 77% | 18% | 34% | 24% | 86% | 69% | 60% | – | – | – | – | – | – | – |
| O=S(=O)(NC1CCN(CCOc2cccc3c2OCCO3)C1)c1ccc2ccccc2c1 (stereo not drawn) [Compound 99, N-[1-[2-(2,3-Dihydro-1,4-benzodioxan-8-yloxy)ethyl]pyrrolidin-3-yl]-naphthalene-2-sulphonamide] | – | – | – | – | – | – | 70% | – | 96% | 97% | 78% | 64% | 38% | 90% | 36% |
| Cc1c(S(=O)(=O)NC2CCN(CCCc3noc4cc(F)ccc34)CC2)sc2ccc(Cl)cc12 [Compound 326, 5-Chloro-N-[1-[3-(6-fluoro-1,2-benzoxazol-3-yl)propyl]-4-piperidyl]-3-methyl-benzothiophene-2-sulphonamide] | -1% | 97% | 61% | 83% | 86% | 91% | 70% | 10% | – | – | – | – | – | – | – |
| O=S(=O)(NC1CCN(CCCc2noc3cc(F)ccc23)C1)c1ccc2c(c1)OCC2 (stereo not drawn) [Compound 24, N-[1-[3-(6-Fluoro-1,2-benzoxazol-3-yl)propyl]pyrrolidin-3-yl]-2,3-dihydrobenzofuran-6-sulphonamide] | 19% | 95% | 52% | 78% | 94% | 82% | 101% | -10% | – | – | – | – | – | – | – |
| O=S(=O)(NC1CCN(CCOc2cccc3ccccc23)CC1)c1cccc(O)c1 [Compound 119, 3-Hydroxy-N-[1-[2-(1-naphthyloxy)ethyl]-4-piperidine]benzene-sulphonamide] | – | – | – | – | – | – | 78% | – | 89% | 69% | 93% | 57% | 79% | 85% | 10% |
